The subject of assay [1] is C. difficile 161. Briefly: MIC by agar dilution against Clostridioides difficile, test strain 16. It counts as cell-based. As to conditions: 161. (In agar dilution the substance is mixed into plates at graded concentrations.)
Assay [2] has as its system C. difficile 174. Briefly: MIC by agar dilution against Clostridioides difficile, test strain 18. It counts as cell-based. As to conditions: 174.
Assay [3] has as its system C. difficile 173. In words: MIC by agar dilution against Clostridioides difficile, test strain 17. It counts as cell-based. As to conditions: 173.
Assay [4] concerns E. faecalis. In words: MIC by broth microdilution (aerobic pathogens), test strain 7. It counts as cell-based. As to conditions: Enterococcus faecalis. The gist of the method: (§1)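 Broth microdilution per CLSI M7-A5 standards was used. MIC was taken as the lowest antibiotic concentration inhibiting bacterial growth by 90% relative to the untreated growth control.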
In assay [5] the test system is S. epidermis. In words: MIC by broth microdilution (aerobic pathogens), test strain 5. It counts as cell-based. Conditions: Staphylococcus epidermidis. The gist of the method:
as §1
A general note: In broth dilution the organism is exposed to a series of concentrations in liquid medium.

Assay [6] relates to C. difficile 9689. In words: MIC by agar dilution against Clostridioides difficile, test strain 13. It counts as cell-based. Conditions: 9689.
In assay [7] the test system is S. aureus^MS. In words: MIC by broth microdilution (aerobic pathogens), test strain 1. It counts as cell-based. Conditions: Staphylococcus aureus. The gist of the method:
as §1

Assay [8] relates to C. difficile 181. Briefly: MIC by agar dilution against Clostridioides difficile, test strain 19. It counts as cell-based. Conditions: 181.
Assay [9] relates to M. intracelluare. Briefly: MIC by resazurin (REMA) assay against Mycobacterium, test strain 22. It counts as cell-based. As to conditions: Mycobacterium intracellulare. The protocol:
(§2) In order to test the antibacterial activity, the medium of Mycobacterium cultured to late log phase was diluted so as to be 4.0×10^5 cells/well in Middlebrook 7H10 agar medium (Difco) supplemented with 10% oleic acid, albumin, dextrose, catalase (OADC, Becton Dickinson) and 0.05% Tween 80 (Sigma Aldrich) and was dispensed into a 96-well plate. The compounds were treated so that DMSO was 1%, and after 3 days, a 0.025% resazurin (REMA) solution was dispensed, and the growth of the bacteria was confirmed after culturing. The MIC value was measured for the antibacterial activity through resazurin (excitation 530 nm, emission 590 nm).
Background: Alamar Blue is a resazurin reagent that responds to reducing activity.

Assay [10] deals with M. abscessus. Briefly: MIC by resazurin (REMA) assay against Mycobacterium, test strain 23. It counts as cell-based. As to conditions: Mycobacteroides abscessus. As to the method:
as §2

The subject of assay [11] is S. epidermis^MR. Briefly: MIC by broth microdilution (aerobic pathogens), test strain 6. It counts as cell-based, Methicillin resistant Staphylococcus epidermidis. As to conditions: Staphylococcus epidermidis. In a few lines: as §1
In assay [12] the test system is C. difficile 152. Briefly: MIC by agar dilution against Clostridioides difficile, test strain 14. It counts as cell-based. Conditions: 152.
Assay [13] relates to M. avium. Briefly: MIC by resazurin (REMA) assay against Mycobacterium, test strain 21. It counts as cell-based. As to the method:
as §2

For assay [14], the system named is E. faecalis^LinR. Briefly: MIC by broth microdilution (aerobic pathogens), test strain 9. It counts as cell-based, Linezolid resistant Enterococcus faecalis. Conditions: Enterococcus faecalis. In a few lines:
as §1

Assay [15] deals with E. faecium. Briefly: MIC by broth microdilution (aerobic pathogens), test strain 10. It counts as cell-based. As to conditions: Enterococcus faecium. In a few lines: as §1
The test system of assay [16] is E. faecium^VRE. Briefly: MIC by broth microdilution (aerobic pathogens), test strain 11. It counts as cell-based, Vancomycin resistant Enterococcus faecium. As to conditions: Enterococcus faecium, VRE. The protocol:
The antibacterial activity of the compounds of Examples 1 to 48 of the present invention against aerobic pathogens were evaluated by measuring the minimum concentration of the antibiotic capable of inhibiting bacterial growth by 90% compared to the growth of the non-drug treated control group. MIC was measured by the broth microdilution method based on CLSI standards [Reference: Clinical and Laboratory Standards Institute Document. (2000) Methods for Dilution Antimicrobial Susceptibility Test for Bacteria that Grow Aerobically-Fifth Edition: M7-A5. CLSI, Villanova, PA].
All 13 strains such as methicillin susceptible Staphylococcus aureus (MSSA), methicillin resistant Staphylococcus aureus (MRSA), Vancomycin resistant Staphylococcus aureus (VRSA), Staphylococcus epidermidis, methicillin resistant Staphylococcus epidermidis, Enterococcus faecalis, Vancomycin resistant Enterococcus faecalis, Enterococcus faecium, Vancomycin resistant Enterococcus faecium were used.

In assay [17] the test system is S. aureus^MS. Briefly: MIC by broth microdilution (aerobic pathogens), test strain 2. It counts as cell-based. As to conditions: Staphylococcus aureus. In a few lines: as §1
The mark [18] stands for this setting: test strain 21, M. avium, resazurin, read-out: MIC.
[19] abbreviates: test strain 9, E. faecalis^LinR (linezolid resistant), read-out: MIC.
[20] abbreviates: test strain 1, S. aureus^MS, read-out: MIC.
The mark [21] stands for this setting: test strain 22, M. intracelluare, resazurin, read-out: MIC.
Where [22] appears, read: test strain 23, M. abscessus, resazurin, read-out: MIC.
Setting [23] is: test strain 2, S. aureus^MS, read-out: MIC.

Values after ≈ are worked out from the molar mass of the structure shown. Where two headings read alike, the source gives them in different places.

As for `C/C=C1\NC(=O)[C@H]([C@@H](C)O)NC(=O)c2csc(n2)-c2ccc(-c3nc(-c4nc(C(=O)NC5(C(=O)NN6CC(=O)N(CC(=O)OC)C6=O)CC5)cs4)cs3)nc2-c2csc(n2)[C@H]([C@@H](C)O)NC(=O)c2csc(n2)[C@H](C(C)C)NC(=O)c2csc1n2` [Compound 26], the MIC (as a rule, the smallest concentration in the dilution series that meets the test's criterion for growth inhibition) came out at 0.5 µg/mL (≈ 0.398 µM) in assay [1]; 0.5 µg/mL (≈ 0.398 µM) in [2]; 0.5 µg/mL (≈ 0.398 µM) in [3]; 1 µg/mL (≈ 0.796 µM) in [4]; 0.5 µg/mL (≈ 0.398 µM) in assay [5]; 1 µg/mL (≈ 0.796 µM) in assay [6]. Also, the MIC worked out at 1 µg/mL (≈ 0.796 µM) in assay [7]; 1 µg/mL (≈ 0.796 µM) in [8]; 0.043 µg/mL (≈ 0.0342 µM) in [9]; 0.726 µg/mL (≈ 0.578 µM) in [10]; 1 µg/mL (≈ 0.796 µM) in [11]; 0.5 µg/mL (≈ 0.398 µM) in [12].

With `C/C=C1\NC(=O)[C@H]([C@@H](C)O)NC(=O)c2csc(n2)-c2ccc(-c3nc(-c4nc(C(=O)NC5(C(=O)NCCCN6C(=O)NC(C)C6=O)CC5)cs4)cs3)nc2-c2csc(n2)[C@H]([C@@H](C)O)NC(=O)c2csc(n2)[C@H](C(C)C)NC(=O)c2csc1n2` (stereo partly drawn) [Compound 37], the minimum inhibitory concentration (MIC) in assay [13] came to 0.082 µg/mL (≈ 0.0661 µM); in [14] it was 1 µg/mL (≈ 0.806 µM); in [4] it was 0.5 µg/mL (≈ 0.403 µM); in assay [5], 0.25 µg/mL (≈ 0.202 µM); in [7] it was 0.25 µg/mL (≈ 0.202 µM); in [15], 0.5 µg/mL (≈ 0.403 µM). Also, the minimum inhibitory concentration (MIC) was found to be 1 µg/mL (≈ 0.806 µM) in [16], 0.25 µg/mL (≈ 0.202 µM) in assay [17] and 0.25 µg/mL (≈ 0.202 µM) in [11].

Regarding `C/C=C1\NC(=O)[C@H]([C@@H](C)O)NC(=O)c2csc(n2)-c2ccc(-c3nc(-c4nc(C(=O)NC5(C(=O)NCCN6CCN(S(C)(=O)=O)CC6)CC5)cs4)cs3)nc2-c2csc(n2)[C@H]([C@@H](C)O)NC(=O)c2csc(n2)[C@H](C(C)C)NC(=O)c2csc1n2` [Compound 29], the MIC is 0.161 µg/mL (≈ 0.126 µM) in assay [13] (setting [18]); 0.25 µg/mL (≈ 0.196 µM) in assay [14] (setting [19]); 1 µg/mL (≈ 0.783 µM) in assay [4] (test strain 7, E. faecalis, read-out: MIC); 0.5 µg/mL (≈ 0.392 µM) in assay [5] (test strain 5, S. epidermis, read-out: MIC); 0.25 µg/mL (≈ 0.196 µM) in assay [7] (setting [20]); 0.13 µg/mL (≈ 0.102 µM) in assay [9] (setting [21]). For the same compound, the minimum inhibitory concentration (MIC) in assay [10] (setting [22]) worked out at 0.43 µg/mL (≈ 0.337 µM); in assay [17] (setting [23]), 0.25 µg/mL (≈ 0.196 µM); in assay [11] (test strain 6, S. epidermis^MR (methicillin resistant), read-out: MIC) it was 0.5 µg/mL (≈ 0.392 µM).

As for `C/C=C1\NC(=O)[C@H]([C@@H](C)O)NC(=O)c2csc(n2)-c2ccc(-c3nc(-c4nc(C(=O)NC5(C(=O)NCCN6CCN(C[C@@H](O)CO)CC6)CC5)cs4)cs3)nc2-c2csc(n2)[C@H]([C@@H](C)O)NC(=O)c2csc(n2)[C@H](C(C)C)NC(=O)c2csc1n2` [Compound 28], the MIC in assay [13] (setting [18]) turned out to be 0.13 µg/mL (≈ 0.102 µM); in assay [14] (setting [19]), 0.5 µg/mL (≈ 0.393 µM); in [7] (setting [20]), 0.25 µg/mL (≈ 0.196 µM); in assay [9] (setting [21]), 0.115 µg/mL (≈ 0.0904 µM); in assay [10] (setting [22]), 0.49 µg/mL (≈ 0.385 µM); in assay [17] (setting [23]), 0.5 µg/mL (≈ 0.393 µM).
